Data: ChEMBL document CHEMBL5214920, “Emerging impact of triazoles as anti-tubercular agent” (Eur J Med Chem, 2022)
In brackets after ≈: the same amount, converted by molar mass.

What was measured:
[1] = test system: Mycobacterium tuberculosis; assay: Antitubercular activity against Mycobacterium tuberculosis mc 2 6230 assessed as bacterial growth inhibition; format: functional
[2] = test system: Mycobacterium tuberculosis; assay: Antitubercular activity against Mycobacterium tuberculosis H37Rv assessed as bacterial growth inhibition at 6.25 ug/ml measured after 5 to 8 days by radiometric analysis relative to control; format: functional; design: scale not given: the % may be the effect or the level left; conditions: dose 6.25 µg/ml; time 5-8 day
[3] = test system: Mycobacterium tuberculosis; assay: Antitubercular activity against Mycobacterium tuberculosis H37Rv assessed as bacterial growth inhibition by micro broth dilution assay; format: functional
[4] = test system: Mycobacterium tuberculosis; assay: Antitubercular activity against Mycobacterium tuberculosis H37Rv assessed as bacterial growth inhibition measured after 7 days by MABA method; format: functional; conditions: 168 h, time 7 day
DNA gyrase subunit B = DNA gyrase subunit B (Mycobacterium smegmatis, UniProt P0C559); assay: Inhibition of Mycobacterium smegmatis GyrB incubated for 120 mins in presence of ATP by malachite green r staining based assay; design: species or system Mycolicibacterium smegmatis
[5] = biological target: DNA gyrase subunit A/DNA gyrase subunit B (Mycobacterium tuberculosis (strain ATCC 25618 / H37Rv), UniProt P9WG45+P9WG47); assay: Inhibition of Mycobacterium tuberculosis DNA gyrase supercoiling activity; format: protein-complex assay
[6] = test system: Mycobacterium tuberculosis; assay: Antitubercular activity against Mycobacterium tuberculosis H37Rv ATCC 27294 assessed as bacterial growth inhibition by agar dilution method; format: functional
[7] = test system: Mycobacterium tuberculosis; assay: Antitubercular activity against Mycobacterium tuberculosis H37Rv ATCC 27294 assessed as bacterial growth inhibition measured after 10 days by MABA method; format: functional; conditions: H37Rv ATCC 27294, 240 h, time 10 day
[8] = test system: Mycobacterium tuberculosis; assay: Antitubercular activity against Mycobacterium tuberculosis H37Rv ATCC 27294 assessed as bacterial growth inhibition; format: functional
[9] = test system: Mycobacterium tuberculosis; assay: Potency index, ratio of ethambutol MIC to test compound MIC for antitubercular activity against Mycobacterium tuberculosis H37Rv assessed as bacterial growth inhibition; format: functional
[10] = test system: Mycobacterium tuberculosis; assay: Antitubercular activity against Mycobacterium tuberculosis H37Rv ATCC 27294 assessed as bacterial growth inhibition measured after 9 days by twofold agar dilution method; format: functional; conditions: H37Rv ATCC 27294, 216 h, time 9 day
[11] = test system: Mycobacterium tuberculosis; assay: Antitubercular activity against Mycobacterium tuberculosis H37Rv assessed as bacterial growth inhibition; format: functional
[12] = test system: Mycobacterium tuberculosis; assay: Antitubercular activity against Mycobacterium tuberculosis mc 2 7000 assessed as bacterial growth inhibition; format: functional
[13] = test system: Mycobacterium tuberculosis; assay: Antitubercular activity against Mycobacterium tuberculosis H37Rv assessed as reduction in relative light units at 5 ug/ml incubated for 4 hrs followed by addition of D-luciferin by luciferase based luminometer analysis relative to control; format: functional; design: scale not given: the % may be the effect or the level left; conditions: dose 5 µg/ml
[14] = test system: Mycobacterium tuberculosis; assay: Antitubercular activity against Mycobacterium tuberculosis H37Rv assessed as reduction in relative light units at 25 ug/ml incubated for 4 hrs followed by addition of D-luciferin by luciferase based luminometer analysis relative to control; format: functional; design: scale not given: the % may be the effect or the level left; conditions: dose 25 µg/ml
[15] = test system: Mycobacterium tuberculosis; assay: Antitubercular activity against Mycobacterium tuberculosis H37Rv ATCC 27294 assessed as bacterial growth inhibition measured after 5 days by MABA method; format: functional; conditions: H37Rv ATCC 27294, 120 h, time 5 day
[16] = test system: Mycobacterium tuberculosis; assay: Antitubercular activity against Mycobacterium tuberculosis H37Rv assessed as bacterial growth inhibition measured after 5 days by MABA method; format: functional; conditions: 120 h, time 5 day
[17] = test system: Mycobacterium tuberculosis; assay: Antitubercular activity against Mycobacterium tuberculosis H37Rv ATCC 27294 assessed as bacterial growth inhibition measured after 7 days by MABA method; format: functional; conditions: H37Rv ATCC 27294, 168 h, time 7 day
[18] = test system: Mycobacterium tuberculosis; assay: Antitubercular activity against Mycobacterium tuberculosis H37Rv assessed as bacterial growth inhibition measured after 7 days by broth microdilution assay; format: functional; conditions: 168 h, time 7 day
[19] = test system: Mycobacterium tuberculosis; assay: Antitubercular activity against Mycobacterium tuberculosis H37Rv assessed as bacterial growth inhibition measured after 7 days by direct susceptibility assay; format: functional; conditions: 168 h, time 7 day
[20] = test system: Mycobacterium tuberculosis; assay: Antitubercular activity against dormant stage of Mycobacterium tuberculosis H37Ra ATCC 25177 assessed as bacterial growth inhibition by XTT assay; format: functional
[21] = test system: Mycobacterium tuberculosis; assay: Antitubercular activity against active stage of Mycobacterium tuberculosis H37Ra ATCC 25177 assessed as bacterial growth inhibition by XTT assay; format: functional
[22] = test system: Mycobacterium tuberculosis; assay: Antitubercular activity against Mycobacterium tuberculosis H37Rv assessed as reduction in relative light units at 2 ug/ml incubated for 4 hrs followed by addition of D-luciferin by luciferase based luminometer analysis relative to control; format: functional; design: scale not given: the % may be the effect or the level left; conditions: dose 2 µg/ml
[23] = test system: Mycobacterium tuberculosis; assay: Antitubercular activity against Mycobacterium tuberculosis H37Rv assessed as bacterial growth inhibition measured after 24 hrs by agar micro dilution method; format: functional
[24] = test system: Mycobacterium tuberculosis; assay: Antitubercular activity against Mycobacterium tuberculosis H37Rv ATCC 27294 assessed as bacterial growth inhibition measured after 48 hrs by broth dilution method; format: functional

Sequence of DNA gyrase subunit B (P0C559 whole entry): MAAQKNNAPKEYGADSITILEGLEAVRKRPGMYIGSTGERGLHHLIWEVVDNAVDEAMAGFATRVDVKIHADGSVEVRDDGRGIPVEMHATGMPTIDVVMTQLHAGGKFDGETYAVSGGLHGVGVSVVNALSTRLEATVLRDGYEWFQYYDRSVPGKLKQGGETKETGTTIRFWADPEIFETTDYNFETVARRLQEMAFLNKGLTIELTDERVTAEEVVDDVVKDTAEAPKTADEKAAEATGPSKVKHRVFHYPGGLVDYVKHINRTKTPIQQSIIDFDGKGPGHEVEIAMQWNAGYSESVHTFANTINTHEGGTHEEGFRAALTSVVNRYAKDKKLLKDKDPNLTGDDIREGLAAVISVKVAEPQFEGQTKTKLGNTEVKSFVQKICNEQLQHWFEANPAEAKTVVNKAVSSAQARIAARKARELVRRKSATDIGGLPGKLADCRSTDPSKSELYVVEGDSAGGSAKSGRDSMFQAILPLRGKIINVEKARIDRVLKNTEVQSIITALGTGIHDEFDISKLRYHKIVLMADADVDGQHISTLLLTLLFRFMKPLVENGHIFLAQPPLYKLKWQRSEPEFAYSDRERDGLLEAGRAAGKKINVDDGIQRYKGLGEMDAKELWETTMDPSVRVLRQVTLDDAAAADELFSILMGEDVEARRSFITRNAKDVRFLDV
Sequence of DNA gyrase subunit A/DNA gyrase subunit B (P9WG45 whole entry): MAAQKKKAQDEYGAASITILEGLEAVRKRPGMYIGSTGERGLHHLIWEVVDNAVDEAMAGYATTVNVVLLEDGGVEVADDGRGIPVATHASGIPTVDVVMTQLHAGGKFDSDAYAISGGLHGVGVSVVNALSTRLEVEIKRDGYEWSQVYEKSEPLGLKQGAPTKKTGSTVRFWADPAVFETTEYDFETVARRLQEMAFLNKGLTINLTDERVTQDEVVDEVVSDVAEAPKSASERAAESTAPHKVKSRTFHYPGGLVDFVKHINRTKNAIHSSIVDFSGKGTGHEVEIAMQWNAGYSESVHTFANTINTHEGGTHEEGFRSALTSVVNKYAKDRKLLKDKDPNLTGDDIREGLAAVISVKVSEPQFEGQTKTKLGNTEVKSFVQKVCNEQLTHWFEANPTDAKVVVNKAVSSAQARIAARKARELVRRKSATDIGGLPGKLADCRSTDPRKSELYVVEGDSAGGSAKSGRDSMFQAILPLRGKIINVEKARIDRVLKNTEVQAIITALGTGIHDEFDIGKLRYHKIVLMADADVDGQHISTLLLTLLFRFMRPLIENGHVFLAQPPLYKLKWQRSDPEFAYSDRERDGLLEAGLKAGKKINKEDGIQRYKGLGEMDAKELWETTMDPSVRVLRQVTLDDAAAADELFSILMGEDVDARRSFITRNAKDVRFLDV
Sequence of DNA gyrase subunit A/DNA gyrase subunit B (P9WG47 whole entry): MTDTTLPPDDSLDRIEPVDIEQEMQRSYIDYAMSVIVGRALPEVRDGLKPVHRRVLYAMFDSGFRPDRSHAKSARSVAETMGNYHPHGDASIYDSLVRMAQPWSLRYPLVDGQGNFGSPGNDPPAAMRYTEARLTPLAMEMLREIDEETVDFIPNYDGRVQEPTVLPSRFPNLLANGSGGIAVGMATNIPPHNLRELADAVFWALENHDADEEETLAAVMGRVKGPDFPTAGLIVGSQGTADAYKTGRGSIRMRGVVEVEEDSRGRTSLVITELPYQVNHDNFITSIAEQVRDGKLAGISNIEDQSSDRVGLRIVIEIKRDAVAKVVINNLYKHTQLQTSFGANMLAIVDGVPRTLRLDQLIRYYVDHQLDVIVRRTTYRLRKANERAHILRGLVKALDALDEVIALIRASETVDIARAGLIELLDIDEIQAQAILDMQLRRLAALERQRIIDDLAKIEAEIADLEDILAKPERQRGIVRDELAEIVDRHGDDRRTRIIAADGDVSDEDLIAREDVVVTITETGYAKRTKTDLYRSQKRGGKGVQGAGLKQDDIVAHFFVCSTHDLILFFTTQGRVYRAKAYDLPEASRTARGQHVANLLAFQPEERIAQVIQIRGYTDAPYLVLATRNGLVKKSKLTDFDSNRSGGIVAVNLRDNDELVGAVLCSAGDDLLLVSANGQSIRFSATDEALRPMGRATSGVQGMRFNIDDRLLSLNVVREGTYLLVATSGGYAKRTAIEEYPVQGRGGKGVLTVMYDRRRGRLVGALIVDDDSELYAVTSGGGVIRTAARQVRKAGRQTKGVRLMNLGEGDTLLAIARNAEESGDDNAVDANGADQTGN

## COc1ccc2c(c1)/C(=N/NC(=O)c1ccncc1)C(=O)N2Cc1cn(-c2ccccc2/C=N\NC(=O)c2ccncc2)nn1
[1]
  MIC99: 0.36 µg/mL (≈ 0.599 µM)

## Cc1nc2ccccc2n2c(-c3cccc([N+](=O)[O-])c3)nnc12
[2]
  Activity: 2%

## CCCCCCCCCNC(=O)Cc1nnc2c3ccccc3cnn12
[3]
  MIC: 0.5 µg/mL

## COc1ccc2cc(-n3cc(COc4nc(-c5ccccn5)sc4C(N)=O)nn3)c(=O)oc2c1
[4]
  MIC: 6.5 µM
DNA gyrase subunit B
  IC50: 440 nM
[5]
  IC50: 500 nM

## CC1(C)OC2C3OC(C)(C)O[C@H]3C(Cn3cc(N4CCCC4=O)nn3)O[C@@H]2O1 (stereo partly specified)
[6]
  MIC: 3.12 µg/mL (≈ 7.92 µM)

## CC1=CN([C@H]2C[C@H](O)[C@@H](Cn3nnc(C(=O)c4ccc(Cl)cc4)c3-c3ccc(C(C)(C)C)cc3)O2)C(=O)CC1=O
[7]
  MIC: 2 µg/mL (≈ 3.55 µM)

## CCOC(=O)c1c(-n2cc(-c3ccc(C)cc3)nn2)c2ccccc2n(C)c1=O
[8]
  MIC: 3.13 µg/mL (≈ 8.06 µM)

## O=C(N/N=C1\C(=O)N(Cc2ccc(Cl)cc2)c2ccccc21)c1ccc(-n2cc(-c3ccccc3)nn2)cc1O
[4]
  MIC: 0.39 µg/mL
[9]
  Ratio: 8

## O=C(N/N=C\c1ccccc1-n1cc(CN2C(=O)/C(=N\NC(=O)c3ccncc3)c3cc(Cl)ccc32)nn1)c1ccncc1
[1]
  MIC99: 0.36 µg/mL (≈ 0.595 µM)

## CC1=CN([C@H]2C[C@H](O)[C@@H](Cn3nnc(C(=O)c4ccc(Br)cc4)c3-c3ccc([N+](=O)[O-])cc3)O2)C(=O)CC1=O
[7]
  MIC: 2 µg/mL (≈ 3.35 µM)

## CC1=CN([C@H]2C[C@H](O)[C@@H](Cn3nnc(C(=O)c4ccc(Cl)cc4)c3-c3ccc(F)cc3)O2)C(=O)CC1=O
[7]
  MIC: 2 µg/mL (≈ 3.81 µM)

## O=C(OCc1cn(CCCc2ccccc2)nn1)c1ccc(F)cc1
[10]
  MIC: 3.75 µg/mL (≈ 11 µM)

## O=C(OCc1cn(-c2ccccc2)nn1)c1c[n+]([O-])c2ccc(Cl)cc2[n+]1[O-]
[11]
  MIC: 30.4 µg/mL (≈ 76.3 µM)
[12]
  MIC: 30.4 µg/mL
[1]
  MIC: 30.4 µg/mL (≈ 76.3 µM)

## CC1(C)OC2C3OC(C)(C)O[C@H]3C(Cn3cc(N4C(=O)CCC4=O)nn3)O[C@@H]2O1 (stereo partly specified)
[6]
  MIC: 3.12 µg/mL (≈ 7.65 µM)

## COc1cccc(-c2nnc3c(C)nc4ccccc4n23)c1
[2]
  Activity: 2%

## Cc1nc2ccccc2n2c(-c3ccc(N(C)C)cc3)nnc12
[2]
  Activity: 2%

## CC(=O)OC[C@H]1O[C@@H](Oc2cn(Cc3ccc4ccccc4n3)nn2)[C@H](OC(C)=O)[C@@H](OC(C)=O)[C@H]1OC(C)=O
[13]
  Activity: 76.41%
[14]
  Activity: 78.37%

## Cc1nc2ccccc2n2c(-c3ccccc3)nnc12
[2]
  Activity: 2%

## CC1=C(C(=O)O)N2C(=O)[C@@H](NC(=O)[C@H](N)c3ccccc3)[C@H]2SC1 [CEPHALEXIN ANHYDROUS]
[12]
  MIC: 72 µM

## CC[C@@H](CO)NCCN[C@@H](CC)CO [ETHAMBUTOL]
[15]
  MIC: 7.63 µM
[16]
  MIC: 1.56 µg/mL (≈ 7.64 µM)
[4]
  MIC: 1.56 µg/mL
[17]
  MIC: 7.64 µM (≈ 1.56 µg/mL)
[18]
  MIC: 6.25 µM (≈ 1.28 µg/mL)
[3]
  MIC: 1 µg/mL

## CCc1cc(C(N)=S)ccn1 [ETHIONAMIDE]
[12]
  MIC: 90.4 µM

## NNC(=O)c1ccncc1 [ISONIAZID]
[15]
  MIC: 0.7 µM
[19]
  MIC: 0.075 µg/mL (≈ 0.547 µM)
[12]
  MIC: 2.92 µM
[7]
  MIC: > 300 µg/mL
[20]
  MIC: 0.043 µg/mL (≈ 0.314 µM)
[21]
  MIC: 0.074 µg/mL (≈ 0.54 µM)
[3]
  MIC: 0.05 µg/mL

## CO[C@H]1/C=C/O[C@@]2(C)Oc3c(C)c(O)c4c(O)c(c(/C=N/N5CCN(C)CC5)c(O)c4c3C2=O)NC(=O)/C(C)=C\C=C\[C@H](C)[C@H](O)[C@@H](C)[C@@H](O)[C@@H](C)[C@H](OC(C)=O)[C@@H]1C [RIFAMPIN]
[4]
  MIC: 0.2 µg/mL
[22]
  Activity: 87%
[19]
  MIC: 0.043 µg/mL (≈ 0.0523 µM)
[12]
  MIC: 0.12 µM
[20]
  MIC: 0.075 µg/mL (≈ 0.0911 µM)
[21]
  MIC: 0.074 µg/mL (≈ 0.0899 µM)

## CN[C@@H]1[C@H](O[C@H]2[C@H](O[C@H]3[C@H](O)[C@@H](O)[C@H](N=C(N)N)[C@@H](O)[C@@H]3N=C(N)N)O[C@@H](C)[C@]2(O)C=O)O[C@@H](CO)[C@H](O)[C@H]1O [STREPTOMYCIN]
[15]
  MIC: 6.25 µg/mL
[16]
  MIC: > 6.25 µg/mL
[7]
  MIC: 2 µg/mL (≈ 3.44 µM)
[23]
  MIC: 3.12 µg/mL (≈ 5.37 µM)

## Cc1ccc(-c2nc3ccc(C)cn3c2CC(=O)N(C)C)cc1 [ZOLPIDEM]
[24]
  MIC: 10 µM (≈ 3.07 µg/mL)
[15]
  MIC: 3.12 µg/mL
